Laboratory results as given in patent US11220503B2, “Phthalazine derivatives, preparation method, pharmaceutical composition and usage thereof” (Shanghai SIMR Biotech Co., Ltd., priority 2015, dated 2022).

Columns and labels:
α5-GABAA = molecular target: T1, α5-GABAA (Homo sapiens, UniProt P31644); conditions: cited from earlier work
T1 sequence (P31644 32-462): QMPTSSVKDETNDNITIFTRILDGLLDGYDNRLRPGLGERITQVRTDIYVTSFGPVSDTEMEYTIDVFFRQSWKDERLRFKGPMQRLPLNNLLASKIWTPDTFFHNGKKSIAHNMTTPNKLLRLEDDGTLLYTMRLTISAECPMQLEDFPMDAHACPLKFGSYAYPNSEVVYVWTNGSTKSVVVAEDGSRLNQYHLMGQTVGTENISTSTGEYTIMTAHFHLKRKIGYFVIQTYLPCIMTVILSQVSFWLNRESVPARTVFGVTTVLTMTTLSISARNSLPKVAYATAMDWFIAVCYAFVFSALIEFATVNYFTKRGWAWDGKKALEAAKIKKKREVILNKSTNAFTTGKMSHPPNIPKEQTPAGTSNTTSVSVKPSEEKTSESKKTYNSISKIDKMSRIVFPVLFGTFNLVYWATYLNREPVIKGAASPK

[1] = Compound tissue distribution (brain/plasma); assay type: in vivo; conditions: brain and plasma, po; rat, 1 mg/kg p.o. in 5% DMSO+70% PEG400+25% H2O, one hour; read-out: Brain/Plasma ratio
Description: The distribution ratio of blood brain tissue was calculated by comparing the concentration of compound in rat plasma and brain tissue. The experimental animals were divided into two groups, the plasma group and the brain group, each with three. To measure brain to plasma ratio, rats were administed compounds in 50% PEG400 p.o. at a dose of 10 mg compound to be tested/kg. One hour later, plasma and brain samples were taken. Concentrations of compounds in brain and plasma were detected using LC-MS/MS-AJ (Triple Quad 5500) assay and analyzed using Phoenix WinNonlin.
We also measured the brain to plasma ratio of compound #24. The experimental animals were divided into two groups, the plasma group and the brain group, each with three. To measure the brain to plasma ratio, Rats were administered compounds (1 mg/kg in 5% DMSO+70% PEG400+25% H2O p.o.). One hour later, plasma and brain samples were taken. Concentrations of compounds in brain and plasma were detected using a LC-MS/MS-AJ (Triple Quad 5500) assay and analyzed using Phoenix WinNonlin.

α5β3γ2 receptor [2] = molecular target: T2, α5β3γ2 receptor (Homo sapiens, UniProt P18507+P31644); experiment: Supplementary data for cell level screening: new electrophysiology method (I. Lecker et al); assay type: cell-based; conditions: for Inverse agonism efficacy(%): new method, CsCl intracellular solution, GABA 0.1˜0.3 CM, other procedures as previous method; for inverse agonism efficacy of the compound/α5IA inverse agonism efficacy: ratio to the α5IA reference run above in the table (r4 or r29)
T2 construct: expressed in transfected cells; host or cells: HEK-293 (stably transfected)
T2 sequence (P28472 26-473 isoform P28472-2 partner limits assumed, one chain of several): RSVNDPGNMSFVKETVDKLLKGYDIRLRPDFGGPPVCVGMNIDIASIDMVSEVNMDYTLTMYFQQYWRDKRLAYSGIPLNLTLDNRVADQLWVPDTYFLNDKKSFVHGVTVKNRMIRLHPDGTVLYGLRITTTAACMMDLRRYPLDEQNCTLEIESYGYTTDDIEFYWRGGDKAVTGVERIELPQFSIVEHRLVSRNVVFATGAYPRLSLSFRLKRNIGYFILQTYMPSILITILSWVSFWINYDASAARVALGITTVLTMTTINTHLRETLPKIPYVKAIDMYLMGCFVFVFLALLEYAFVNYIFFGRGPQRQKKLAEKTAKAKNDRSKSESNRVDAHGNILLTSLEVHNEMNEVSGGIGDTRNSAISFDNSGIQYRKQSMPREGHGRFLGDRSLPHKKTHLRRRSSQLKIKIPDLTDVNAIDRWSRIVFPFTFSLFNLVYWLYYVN
T2 sequence (P18507 40-475, one chain of several): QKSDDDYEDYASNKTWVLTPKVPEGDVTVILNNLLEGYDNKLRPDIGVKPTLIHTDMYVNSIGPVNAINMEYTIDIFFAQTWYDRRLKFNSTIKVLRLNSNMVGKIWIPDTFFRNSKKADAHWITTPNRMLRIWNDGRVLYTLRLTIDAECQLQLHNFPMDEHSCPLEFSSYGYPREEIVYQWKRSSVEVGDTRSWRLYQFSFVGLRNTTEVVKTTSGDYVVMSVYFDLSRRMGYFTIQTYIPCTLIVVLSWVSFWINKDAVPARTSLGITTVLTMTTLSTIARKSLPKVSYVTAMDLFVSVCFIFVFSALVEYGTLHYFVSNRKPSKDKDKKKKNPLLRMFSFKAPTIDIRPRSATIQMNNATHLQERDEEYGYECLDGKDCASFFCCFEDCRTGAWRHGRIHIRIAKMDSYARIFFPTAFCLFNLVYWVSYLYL
Description: The inventors used electrophysiological methods to assay the inverse agonist efficacy of the substance to be tested. The detailed procedures are as follows: (1) Different subunits of GABAA receptors were expressed in human embryonic kidney cells 293 (HEK293). The cells were cultured in a culture medium and used as a cell model for screening potential analgesics. The α, β and γ subunits are necessary to form complete functional GABAA receptors. In this example, the inventor has established the following cell model: (a) α5 subunit (protein sequence is GenBank accession number: NP_001158509), β3 subunit (protein sequence is GenBank accession number: NP_068712) and γ2 subunit (protein sequence is GenBank accession number: NP_944494) were expressed in HEK-293 cell lines at the same time, which formed the complete functional GABAA receptors. (2) Cells were stably transfected HEK-293 cells expressing α5β3γ2 receptor, which were labeled by green fluorescent protein (GFP). Cells were grown in 10 cm dishes. The cells were passaged after reaching 80-90% confluence. During passaging, the culture medium was removed and discarded, 3 mL DMEM medium (Gibco™) was added to the dishes, the dishes were shaken slightly, and DMEM was removed and discarded. 3 mL Trypsin (Trypsin-EDTA 0.05%, Gibco™) was added and cells were digested at 37° C. for 3 minutes. Then 3 mL complete growth medium (DMEM+10% horse serum (Gibco™)) was added and the cells at the bottom of the culture dishes were dispersed. The cell suspension were transferred to a 15 mL centrifugal tube (Corning®) and then centrifuged at 200 g for 3 minutes. The supernatant was discarded, 4 mL complete growth medium was added, and the cells were resuspended by gently blowing. The cell suspension was diluted by 1:5 or 1:10 for subculturing. The cell suspension was diluted by 1:12 for electrophysiology experiment, which are added to the 24 well plate (Corning®) which has a glass slide pre-treated with poly-D-lysine. The cells were adhered to the slide before the experiment was conducted. The cells were maintained in culture for no more than 24 hours before use. (3) Compound concentration: for screening, all compounds were diluted to a final concentration of 100 nM. […] The compounds were at the concentration of 1 nM, 10 nM, 50 nM, 100 nM and 1000 nM in dose-inverse agonism efficacy (%) experiment. The whole cell patch clamp technique was used in electrophysiology experiments. The extracellular solution (ECS) contained: 150 mM NaCl, 5 mM KCl, 2.5 mM CaCl2, 1 mM MgCl2, 10 mM HEPES and 10 mM glucose (pH 7.4); […], 5 mM EGTA, 10 mM HEPES ([…] water). The currents were recorded by an EPC-10 amplifier and the PatchMaster software (HEKA). Patch electrodes with a resistance of 5-6 MΩ were pulled from borosilicate glass (Sutter). The diluted compounds were perfused by OCTAFLOWII system. GFP positive and independently growing cells were selected for recording. During recording, the membrane voltage was clamped at −60 mV. During experiment, the cells were firstly perfused with ECS for 20 seconds. When the baseline reached to a stable state, cells were then perfused with GABA solution. Then the current induced by GABA can be detected. After about 20-40 seconds, the current was stable. ECS was switched to compounds solution and the effects of the compounds were detected. At last, the perfusion solution was switched to ECS. The experiment was finished when the post-baseline returned to the pre-baseline before compounds perfusion. Only the data whose pre-baseline and post-baseline are at almost the same level were used for analysis. […] Then, compounds were diluted at the desired concentration in GABA ECS. (4) Currents were analyzed with the PatchMaster (HEKA) software. The GABA currents before (Ipre) and after (Ipost) compounds perfusion were recorded respectively. The efficacies of compounds were calculated by the following equation: inverse agonism efficacy=(Ipost-Ipre)*100/Ipre. N indicates experiment numbers. […]

α5-GABAA receptor = conditions: cited from earlier work
α5β3γ2 receptor [3] = molecular target: T2, α5β3γ2 receptor; experiment: Cell level screening: whole cell patch clamp, inverse agonist efficacy; assay type: cell-based; conditions: for inhibition at 0.1 µM: HEK293, compound 100 nM, GABA 0.05-0.1 μM, HEK293 α5β3γ2, clamped at −60 mV, (Ipost-Ipre)*100/Ipre, read-out: inverse agonism efficacy(%); for inverse agonism efficacy of the compound/α5IA inverse agonism efficacy: ratio to α5IA, compound 100 nM
Description: The inventors used electrophysiological methods to assay the inverse agonist efficacy of the substance to be tested. The detailed procedures are as follows: (1) Different subunits of GABAA receptors were expressed in human embryonic kidney cells 293 (HEK293). The cells were cultured in a culture medium and used as a cell model for screening potential analgesics. The α, β and γ subunits are necessary to form complete functional GABAA receptors. In this example, the inventor has established the following cell model: (a) α5 subunit (protein sequence is GenBank accession number: NP_001158509), β3 subunit (protein sequence is GenBank accession number: NP_068712) and γ2 subunit (protein sequence is GenBank accession number: NP_944494) were expressed in HEK-293 cell lines at the same time, which formed the complete functional GABAA receptors. (2) Cells were stably transfected HEK-293 cells expressing α5β3γ2 receptor, which were labeled by green fluorescent protein (GFP). Cells were grown in 10 cm dishes. The cells were passaged after reaching 80-90% confluence. During passaging, the culture medium was removed and discarded, 3 mL DMEM medium (Gibco™) was added to the dishes, the dishes were shaken slightly, and DMEM was removed and discarded. 3 mL Trypsin (Trypsin-EDTA 0.05%, Gibco™) was added and cells were digested at 37° C. for 3 minutes. Then 3 mL complete growth medium (DMEM+10% horse serum (Gibco™)) was added and the cells at the bottom of the culture dishes were dispersed. The cell suspension were transferred to a 15 mL centrifugal tube (Corning®) and then centrifuged at 200 g for 3 minutes. The supernatant was discarded, 4 mL complete growth medium was added, and the cells were resuspended by gently blowing. The cell suspension was diluted by 1:5 or 1:10 for subculturing. The cell suspension was diluted by 1:12 for electrophysiology experiment, which are added to the 24 well plate (Corning®) which has a glass slide pre-treated with poly-D-lysine. The cells were adhered to the slide before the experiment was conducted. The cells were maintained in culture for no more than 24 hours before use. (3) Compound concentration: for screening, all compounds were diluted to a final concentration of 100 nM. GABA was diluted at the concentration of 0.05-0.1 μM. The compounds were at the concentration of 1 nM, 10 nM, 50 nM, 100 nM and 1000 nM in dose-inverse agonism efficacy (%) experiment. The whole cell patch clamp technique was used in electrophysiology experiments. The extracellular solution (ECS) contained: 150 mM NaCl, 5 mM KCl, 2.5 mM CaCl2, 1 mM MgCl2, 10 mM HEPES and 10 mM glucose (pH 7.4); Patch electrodes were filled with an intracellular solution containing: 140 mM KCl, 5 mM EGTA, 10 mM HEPES (adjusted to pH 7.4 with KOH and to 320-330 mOsm with water). The currents were recorded by an EPC-10 amplifier and the PatchMaster software (HEKA). Patch electrodes with a resistance of 5-6 MΩ were pulled from borosilicate glass (Sutter). The diluted compounds were perfused by OCTAFLOWII system. GFP positive and independently growing cells were selected for recording. During recording, the membrane voltage was clamped at −60 mV. During experiment, the cells were firstly perfused with ECS for 20 seconds. When the baseline reached to a stable state, cells were then perfused with GABA solution. Then the current induced by GABA can be detected. After about 20-40 seconds, the current was stable. ECS was switched to compounds solution and the effects of the compounds were detected. At last, the perfusion solution was switched to ECS. The experiment was finished when the post-baseline returned to the pre-baseline before compounds perfusion. Only the data whose pre-baseline and post-baseline are at almost the same level were used for analysis. GABA was diluted at the concentration of 0.05-0.1 μM in ECS. Then, compounds were diluted at the desired concentration in GABA ECS. (4) Currents were analyzed with the PatchMaster (HEKA) software. […]

| SMILES | Inverse agonism efficacy(%) (α5β3γ2 receptor [2]) | inverse agonism efficacy of the compound/α5IA inverse agonism efficacy (α5β3γ2 receptor [2]) | inhibition at 0.1 µM (α5β3γ2 receptor [3]) | inverse agonism efficacy of the compound/α5IA inverse agonism efficacy (α5β3γ2 receptor [3]) | also measured |
| --- | --- | --- | --- | --- | --- |
| CCOC(=O)c1ncn2c1[C@@H]1CCCN1C(=O)c1cc(OC)ccc1-2 [L-655,708] | – | – | – | – | inhibition efficacy (α5-GABAA; GABA 1 μM, highest dose of L-655,708): ~15%; inhibition of the current induced by low level GABA (α5-GABAA; GABA 5, 50 and 500 nM): in the concentration dependent manner; inhibition on the current induced by GABA (α5-GABAA; GABA concentration higher than 1 μM): no inhibition |
| Cc1cc(-c2nnc3c4ccccc4c(OCc4ccc(C(=O)NCC5CC5)cn4)nn23)no1 [Compound 24, N-(cyclopropylmethyl)-6-(((3-(5-methylisoxazol-3-yl)-[1,2,4]triazolo[3,4-a]phthalazin-6-yl)oxy)methyl)nicotinamide] | −34.5% | 1.855 | – | – | Kp at 1 h [1]: 0.044 |
| Cn1ncnc1COc1nn2c(-c3cc(CO)on3)nncc2c1C(C)(C)C [MRK016-M3] | – | – | – | – | blocking of the binding of (^3H) R0-15-1788 in brain (α5-GABAA receptor): almost no blocking effect |
| Cc1cc(-c2nncc3c(C(C)(C)C)c(OCc4ncnn4C)nn23)no1 [MRK016, 3-tert-butyl-7-(5-methylisoxazol-3-yl)-2-(1-methyl-1H-1,2,4-triazol-5-ylmethoxy) pyrazolo[1,5-d][1,2,4]triazine] | – | – | – | – | blocking of the binding of (^3H) R0-15-1788 in brain (α5-GABAA receptor): could efficiently block the binding |
| Cc1nc(-c2nnc3c4ccccc4c(OCc4ccc(C(=O)N[C@H](C)CO)cn4)nn23)no1 [Compound 57, (R)—N-(1-hydroxypropan-2-yl)-6-(((3-(5-methyl-1,2,4-oxadiazol-3-yl)-[1,2,4]triazolo[3,4-a]phthalazin-6-yl)oxy)methyl)nicotinamide] | −25% | 1.439 | 38.3% | 1.6973 | – |
| O=C(NC1CCC1)c1ccc(COc2nn3c(-c4cc(CO)on4)nnc3c3ccccc23)nc1 [Compound 48, N-cyclobutyl-6-(((3-(5-(hydroxymethyl)isoxazol-3-yl)-[1,2,4]triazolo[3,4-a]phthalazin-6-yl)oxy)methyl)nicotinamide] | −20% | 1.151 | 43.2% | 1.915 | – |
| Cc1cc(-c2nnc3c4ccccc4c(OCc4ccc(C(=O)N[C@H]5CCC[C@@H]5O)cn4)nn23)no1 [Compound 03, N-((1S,2S)-2-hydroxycyclopentyl)-6-(((3-(5-methylisoxazol-3-yl)-[1,2,4]triazolo[3,4-a]phthalazin-6-yl)oxy)methyl)nicotinamide] | −29.33% | 1.689 | 41.3% | 1.832 | – |
